According to publication PMC10385824, “Antiproliferative and Tubulin-Destabilising Effects of 3-(Prop-1-en-2-yl)azetidin-2-Ones and Related Compounds in MCF-7 and MDA-MB-231 Breast Cancer Cells” (Pharmaceuticals, 2023):
Like-named read-outs stand apart in the source and are kept apart here. Values belong to the compound of their own block, whether it stands above or below them.

System: MCF-7 human breast cancer cells
Assay: cells
[1] = MCF7, 72 h, MCF-7, Figure 2, 72 h
[2] = MCF7, read-out: Antiproliferative Activity IC50, MCF-7, eight concentrations 0.001–50 μM, mean ± SEM, Table 3
[3] = MCF7, read-out: Antiproliferative Activity IC50, MCF-7, eight concentrations 0.001–50 μM, mean ± SEM, Table 4
[4] = MCF7, read-out: Antiproliferative Activity IC50
[5] = MCF7, 72 h, read-out: Antiproliferative Activity IC50, MCF-7, 72 h, eight concentrations (0.001–50 mM [sic]), mean ± SEM, Table 5

SMILES: C=C(C)C1C(=O)N(c2cc(OC)c(OC)c(OC)c2)C1c1cccc2ccccc12 (stereo not shown) [9m, 4-Naphthalen-1-yl-1-(3,4,5-trimethoxyphenyl)-3-(prop-1-en-2-yl)azetidin-2-one]
IC50 [1]: 8.07 µM
IC50 (MCF7, 72 h, read-out: Antiproliferative Activity IC50, MCF-7, 72 h, eight concentrations 1–50 μM, mean ± SEM, Table 2): 44.1 ± 2.57 µM

SMILES: C=C(C)C1C(=O)N(c2cc(OC)c(OC)c(OC)c2)C1c1ccc(OC)c([N+](=O)[O-])c1 (stereo not shown) [9r, 4-(4-Methoxy-3-nitrophenyl)-1-(3,4,5-trimethoxyphenyl)-3-(prop-1-en-2-yl)azetidin-2-one]
IC50 (MCF7): 0.01 to 0.033 µM

SMILES: C=CCC1C(=O)N(c2cc(OC)c(OC)c(OC)c2)C1c1ccc([N+](=O)[O-])cc1 (stereo not shown) [10a, 3-Allyl-4-(4-nitrophenyl)-1-(3,4,5-trimethoxyphenyl)azetidin-2-one]
IC50 [2]: 4.13 ± 0.62 µM

SMILES: C=CCC1C(=O)N(c2cc(OC)c(OC)c(OC)c2)C1c1ccc(Cl)cc1 (stereo not shown) [10b, 3-Allyl-4-(4-chlorophenyl)-1-(3,4,5-trimethoxyphenyl)azetidin-2-one]
IC50 [2]: 0.621 ± 0.095 µM

SMILES: C=CCC1C(=O)N(c2cc(OC)c(OC)c(OC)c2)C1c1ccc(Br)cc1 (stereo not shown) [10c, 3-Allyl-4-(4-bromophenyl)-1-(3,4,5-trimethoxyphenyl)azetidin-2-one]
IC50 [2]: 0.944 ± 0.1 µM

SMILES: C=CCC1C(=O)N(c2cc(OC)c(OC)c(OC)c2)C1c1ccc(N(C)C)cc1 (stereo not shown) [10e, 3-Allyl-4-(4-dimethylaminophenyl)-1-(3,4,5-trimethoxyphenyl)azetidin-2-one]
IC50 [2]: 4.46 ± 0.11 µM

SMILES: C=CCC1C(=O)N(c2cc(OC)c(OC)c(OC)c2)C1c1ccccc1 (stereo not shown) [10f, 3-Allyl-4-phenyl-1-(3,4,5-trimethoxyphenyl)azetidin-2-one]
IC50 [2]: 9.61 ± 1.2 µM

SMILES: C=CCC1C(=O)N(c2cc(OC)c(OC)c(OC)c2)C1c1ccc(OCC)cc1 (stereo not shown) [10i, 3-Allyl-4-(4-ethoxyphenyl)-1-(3,4,5-trimethoxyphenyl)azetidin-2-one]
IC50 [2]: 0.091 ± 0.01 µM

SMILES: C=CCC1C(=O)N(c2cc(OC)c(OC)c(OC)c2)C1c1ccc(OCCCC)cc1 (stereo not shown) [10j, 3-Allyl-4-(4-butoxyphenyl)-1-(3,4,5-trimethoxyphenyl)azetidin-2-one]
IC50 [2]: 17.4 ± 1.23 µM

SMILES: C=CCC1C(=O)N(c2cc(OC)c(OC)c(OC)c2)C1c1ccc(Oc2ccccc2)cc1 (stereo not shown) [10k, 3-Allyl-4-(4-phenoxyphenyl)-1-(3,4,5-trimethoxyphenyl)azetidin-2-one]
IC50 [2]: 7.49 ± 0.6 µM

SMILES: C=CCC1C(=O)N(c2cc(OC)c(OC)c(OC)c2)C1c1ccc2ccccc2c1 (stereo not shown) [10n, 3-Allyl-4-naphthalen-2-yl-1-(3,4,5-trimethoxyphenyl)azetidin-2-one]
IC50 [2]: 0.318 ± 0.03 µM

SMILES: C=CCC1C(=O)N(c2ccccc2)C1c1ccc(OC)cc1 (stereo not shown) [10s, 3-Allyl-4-(4-Methoxyphenyl)-1-phenylazetidin-2-one]
IC50 [2]: 84.5 ± 8.1 µM

SMILES: C=C/C=C/C1C(=O)N(c2cc(OC)c(OC)c(OC)c2)C1c1ccc(OCCCC)cc1 (stereo not shown) [11j, (E)-3-(Buta-1,3-dien-1-yl)-4-(4-butoxyphenyl)-1-(3,4,5-trimethoxyphenyl)-azetidin-2-one]
IC50 [3]: 182 ± 19.4 µM

SMILES: C=CCC1C(=O)N(c2cc(OC)c(OC)c(OC)c2)C1c1ccc(OC)c(OP(=O)(O)O)c1 (stereo not shown) [15c, 5-(3-Allyl-1-(3,4,5-trimethoxyphenyl)-4-oxoazetidin-2-yl)-2-methoxyphenyl dihydrogen phosphate]
IC50 [4]: 0.094 ± 0.015 µM

SMILES: CCCC1C(=O)N(c2cc(OC)c(OC)c(OC)c2)C1c1ccc(OC)c(OP(=O)(O)O)c1 (stereo not shown) [15d, 2-Methoxy-5-(1-(3,4,5-trimethoxyphenyl)-4-oxo-3-propylazetidin-2-yl)phenyl dihydrogen phosphate]
IC50 [4]: 0.032 ± 0.005 µM

SMILES: COc1ccc(C2C(C=Cc3ccc(C(F)(F)F)cc3)C(=O)N2c2cc(OC)c(OC)c(OC)c2)cc1 (stereo not shown) [compound 19, 3-(4-(Trifluoromethyl)styryl)-1-(3,4,5-trimethoxyphenyl)-4-(4-methoxyphenyl)azetidin-2-one]
IC50 [5]: 7.71 ± 0.78 µM

Next, values leading:

IC50 [3]: 1.93 ± 0.34 µM
SMILES: C=C/C=C/C1C(=O)N(c2cc(OC)c(OC)c(OC)c2)C1c1ccc(N(C)C)cc1 (stereo not shown) [11e, (E)-3-(Buta-1,3-dien-1-yl)-4-(4-dimethylaminophenyl)-1-(3,4,5-trimethoxyphenyl)azetidin-2-one]

IC50 [3]: 145 ± 11.7 µM
SMILES: C=C/C=C/C1C(=O)N(c2cc(OC)c(OC)c(OC)c2)C1c1ccc(OCc2ccccc2)cc1 (stereo not shown) [11l, (E)-3-(Buta-1,3-dien-1-yl)-4-(4-benzyloxyphenyl)-1-(3,4,5-trimethoxyphenyl)azetidin-2-one]

IC50 [3]: 0.296 ± 0.05 µM
SMILES: C=C/C=C/C1C(=O)N(c2cc(OC)c(OC)c(OC)c2)C1c1ccc2ccccc2c1 (stereo not shown) [11n, (E)-3-(Buta-1,3-dien-1-yl)-4-(naphthalen-2-yl)-1-(3,4,5-trimethoxyphenyl)azetidin-2-one]

IC50 [3]: 15.2 ± 1.41 µM
SMILES: C=C/C=C/C1C(=O)N(c2ccccc2)C1c1ccc(OC)cc1 (stereo not shown) [11s, (E)-3-(Buta-1,3-dien-1-yl)-4-(4-methoxyphenyl)-1-phenylazetidin-2-one]

IC50 [1]: 4.92 µM
SMILES: C=C(C)C1C(=O)N(c2cc(OC)c(OC)c(OC)c2)C1c1ccc(OC)c(NC(=O)C(N)Cc2ccccc2)c1 (stereo not shown) [13a, 2-Amino-N-(2-methoxy-5-(1-(3,4,5-trimethoxyphenyl)-4-oxo-3-(prop-1-en-2-yl)azetidin-2-yl)phenyl)-3-phenylpropanamide]

IC50 [2]: 10.7 ± 1.94 µM
SMILES: C=CCC1C(=O)N(c2cc(OC)c(OC)c(OC)c2)C1c1ccc(OC)c(NC(=O)C(N)Cc2ccccc2)c1 (stereo not shown) [13b, N-(5-(3-Allyl-1-(3,4,5-trimethoxyphenyl)-4-oxoazetidin-2-yl)-2-methoxyphenyl)-2-amino-3-phenylpropanamide]

IC50 [2]: 13 ± 1.25 µM
SMILES: C=CCC1C(=O)N(c2cc(OC)c(OC)c(OC)c2)C1c1ccc(OC)c(NC(=O)C(N)C(C)C)c1 (stereo not shown) [13c, N-(5-(3-Allyl-1-(3,4,5-trimethoxyphenyl)-4-oxoazetidin-2-yl)-2-methoxyphenyl)-2-amino-3-methylbutanamide]

IC50 [3]: 24.2 ± 3.91 µM
SMILES: C=C/C=C/C1C(=O)N(c2cc(OC)c(OC)c(OC)c2)C1c1ccc(OC)c(NC(=O)C(N)C(C)C)c1 (stereo not shown) [13d, 2-Amino-N-(5-(3-((E)-buta-1,3-dienyl)-1-(3,4,5-trimethoxyphenyl)-4-oxoazetidin-2-yl)-2-methoxyphenyl)-3-methylbutanamide]

IC50 [3]: 9.36 ± 1.21 µM
SMILES: C=CC=CC1C(=O)N(c2cc(OC)c(OC)c(OC)c2)C1c1ccc(OC)c(NC(=O)CN)c1 (stereo not shown) [13e, 2-Amino-N-(5-(3-(buta-1,3-dienyl)-1-(3,4,5-trimethoxyphenyl)-4-oxoazetidin-2-yl)-2-methoxyphenyl)acetamide]

IC50 [5]: 1.09 ± 0.08 µM
SMILES: COc1ccc(C2C(CC=Cc3ccccc3)C(=O)N2c2cc(OC)c(OC)c(OC)c2)cc1O (stereo not shown) [17b, 3-Cinnamyl-4-(3-hydroxy-4-methoxyphenyl)-1-(3,4,5-trimethoxyphenyl)azetidin-2-one]

IC50 [5]: 75.4 ± 8.12 µM
SMILES: O=C1C(CC=Cc2ccccc2)C(c2ccccc2)N1c1ccccc1 (stereo not shown) [17c, 3-Cinnamyl-1,4-diphenylazetidin-2-one]

IC50 [5]: 49.5 ± 5.23 µM
SMILES: COc1ccc(C2C(CC=Cc3ccc(C(F)(F)F)cc3)C(=O)N2c2cc(OC)c(OC)c(OC)c2)cc1 (stereo not shown) [17d, 3-(4-(Trifluoromethyl)cinnamyl)-4-(4-methoxyphenyl)-1-(3,4,5-trimethoxyphenyl) azetidin-2-one]

IC50 [5]: 4.76 ± 0.56 µM
SMILES: COc1ccc(C2C(CC=Cc3ccc(C(F)(F)F)cc3)C(=O)N2c2ccccc2)cc1 (stereo not shown) [17e, 3-(4-(Trifluoromethyl)cinnamyl)-4-(4-methoxyphenyl)-1-phenylazetidin-2-one]

IC50 [5]: 0.075 ± 0.01 µM
SMILES: CCOC(=O)CC1C(=O)N(c2cc(OC)c(OC)c(OC)c2)C1c1ccc(OC)c(O)c1 (stereo not shown) [17g, Ethyl-2-(2-(3-hydroxy-4-methoxyphenyl)-1-(3,4,5-trimethoxyphenyl)-4-oxoazetidin-3-yl)acetate]
